In patent US20230133587A1, “Amino Acid Mediated Gene Delivery and Its Uses” (CHINESE INSTITUTE FOR BRAIN RESEARCH, BEIJING, priority 2020, published 2023):

System: astrocytes
Assay: Other amino acids promote uptake of plasmid vectors by astrocytes
Format: in vivo
Details: amino acid solution as vehicle
Method: Other amino acids, including serine, alanine, histidine, γ-aminobutyric acid, proline, lysine, and threonine, are tested. […] From the analysis of the transfection efficiency of various amino acids, it was seen that, except for alanine, the efficiency of L-type amino acids is much higher than that of D-type amino acids (please see FIG. 11).
Histidine, lysine, and arginine, which are also positively charged, are significant differences in delivery efficiency, and gene delivery efficiency of threonine, serine lysine, etc. also has vast differences.

Compound | uptake of plasmid vectors by astrocytes
C[C@@H](N)C(=O)O [D-Alanine] | promote astrocyte uptake of plasmid vector(s)
N[C@@H](Cc1c[nH]cn1)C(=O)O [L-Histidine] | promote astrocyte uptake of plasmid vector(s)
N[C@@H](CO)C(=O)O [L-Serine] | promote astrocyte uptake of plasmid vector(s)
C[C@@H](O)[C@H](N)C(=O)O [L-Threonine] | promote astrocyte uptake of plasmid vector(s)
C[C@H](N)C(=O)O [alanine] | can efficiently promote astrocytes to take up plasmid vectors
N[C@@H](Cc1c[nH]cn1)C(=O)O [histidine] | can efficiently promote astrocytes to take up plasmid vectors
NCCCC[C@H](N)C(=O)O [lysine] | can efficiently promote astrocytes to take up plasmid vectors
O=C(O)[C@@H]1CCCN1 [proline] | can efficiently promote astrocytes to take up plasmid vectors
N[C@@H](CO)C(=O)O [serine] | can efficiently promote astrocytes to take up plasmid vectors
C[C@@H](O)[C@H](N)C(=O)O [threonine] | can efficiently promote astrocytes to take up plasmid vectors
NCCCC(=O)O [γ-aminobutyric acid] | can efficiently promote astrocytes to take up plasmid vectors
